Experiment [1] has as its system clinically isolated 26 strains of P. acnes. The experiment in a line: MIC, agar plate dilution, Test Example 10. The settings on record: reference data, not obtained through tests simultaneously carried out. Format: cell-based, Propionibacterium acnes.
Experiment [2] has as its system Staphylococcus spp. (44 Strains). As to the kind of experiment: MIC, agar plate dilution, Test Example 22. Format: cell-based. The text has this: Strains Used: There were used 44 strains of Staphylococcus spp. […] Sterilized distilled water was used in the dilution of the solution.
The mark [3] stands for this setting: Cutibacterium acnes, read-out: MIC50.
Setting [4] is: Cutibacterium acnes, read-out: MIC80.
The mark [5] stands for this setting: Staphylococcus, read-out: MIC50.
[6] abbreviates: Staphylococcus, read-out: MIC80.

Converted amounts (≈) assume the structure as drawn. Read-outs that look alike come from different tables or passages of the source. A value given as a limit tells only on which side of the number the result lay.

Usually MIC50 stands for an inhibitory concentration at the 50% level, which refers to growth in some studies and to a panel of isolates in others. One may read the MIC80 as the lowest concentration that inhibits either 80% of growth or 80% of the strains tested, depending on the study.

`CC1COc2c(N3CCN(C)CC3)c(F)cc3c(=O)c(C(=O)O)cn1c23` (centres unmarked) [OFLX, Ofloxacin]: the MIC50 in experiment [1] (setting [3]) and in experiment [2] (setting [5]) was 0.39 µg/mL (≈ 1.08 µM) each time. The results for the MIC80 in experiment [1] (setting [4]) and in experiment [2] (setting [6]) were 0.39 µg/mL (≈ 1.08 µM) and 0.78 µg/mL (≈ 2.16 µM), respectively.

As to `CCC[C@@H]1C[C@@H](C(=O)N[C@@H]([C@H]2O[C@H](SC)[C@H](O)[C@@H](O)[C@H]2O)[C@H](C)Cl)N(C)C1` [CLDM, Clindamycin], in experiment [1], the “MIC50” value stood at 0.10 µg/mL (≈ 0.235 µM) and the “MIC80” value amounted to 0.19 µg/mL (≈ 0.447 µM). In experiment [2], the “MIC50” value was 0.10 µg/mL (≈ 0.235 µM) and the “MIC80” value is over 100 µg/mL.

`CC1CCc2c(N3CCC(O)CC3)c(F)cc3c(=O)c(C(=O)O)cn1c23` (centres unmarked) [NDFX, Nadifloxacin]: the MIC50 in experiment [1] (setting [3]) came out at 0.19 µg/mL (≈ 0.527 µM); in experiment [2] (setting [5]), 0.05 µg/mL (≈ 0.139 µM). Also, the MIC80 in experiment [1] (setting [4]) worked out at 0.19 µg/mL (≈ 0.527 µM); in experiment [2] (setting [6]), 0.78 µg/mL (≈ 2.16 µM).

Consider `CN(C)c1ccc(O)c2c1C[C@H]1C[C@H]3[C@H](N(C)C)C(O)=C(C(N)=O)C(=O)[C@@]3(O)C(O)=C1C2=O` [MINO, Minocycline], for which the MIC50 was 0.05 µg/mL (≈ 0.109 µM) in experiment [1] (setting [3]) and 0.1 µg/mL (≈ 0.219 µM) in experiment [2] (setting [5]). The MIC80 in experiment [1] (setting [4]) and in experiment [2] (setting [6]) was 0.1 µg/mL (≈ 0.219 µM) each time.

For the compound `CN(C)[C@@H]1C(=O)C(C(N)=O)=C(O)[C@@]2(O)C(=O)C3=C(O)c4c(O)cccc4[C@@](C)(O)[C@H]3C[C@@H]12` [TC, Tetracycline], in experiment [1], the “MIC50” value turned out to be 0.19 µg/mL (≈ 0.428 µM) and the “MIC80” value was 0.19 µg/mL (≈ 0.428 µM). In experiment [2], the “MIC50” value is 0.39 µg/mL (≈ 0.878 µM) and the “MIC80” value came to 25 µg/mL (≈ 56.3 µM).

The record behind these values is US20090130236A1, “ANTI-MICROBIAL AGENT AND ANTI-MICROBIAL COMPOSITION” (Hououdou Co., Ltd., priority 2002, published 2009).
